This passage reports MIC, Activity and ED50 results from ChEMBL document CHEMBL5120841, “Discovery of novel pleuromutilin derivatives as potent antibacterial agents” (2022).

The structures appear in SMILES notation. Values after ≈ are worked out from the molar mass of the structure shown. Active and inactive are the calls of the source. The calls are words filed in the database; no cut-off is given here. A value given as a limit tells only on which side of the number the result lay.

Assay [1] concerns Staphylococcus aureus. As to the kind of experiment: Antibacterial activity against Staphylococcus aureus ATCC 25923 assessed as bacterial growth inhibition incubated for 18 to 24 hrs by microtiter dilution method. The format is functional. The settings on record: time 18-24 hrs.
Assay [2] deals with Staphylococcus aureus. Description: Antibacterial activity against methicillin-resistant Staphylococcus aureus BNCC 337371 infected in Kunming mouse lung assessed as reduction on lymphocyte infiltration at 40 mg/kg,ip measured after 7 days by hematoxylin and eosin staining based light microscopic analysis. The format is functional, organism-based. The settings on record: time 7.0 day.

The test system of assay [3] is Staphylococcus aureus. As to the kind of experiment: Antibacterial activity against methicillin-resistant Staphylococcus aureus BNCC 337371 infected in Kunming mouse lung assessed as reduction on alveolar diaphragm thickening at 15 mg/kg,ip measured after 7 days by hematoxylin and eosin staining based light microscopic analysis. The format is functional, organism-based. The settings on record: time 7.0 day.

The subject of assay [4] is Staphylococcus aureus. Description: Antibacterial activity against methicillin-resistant Staphylococcus aureus BNCC 337371 infected in Kunming mouse kidney assessed as reduction on bacterial growth at 40 mg/kg,ip dosed measured after 7 days by 10-fold dilution method. The format is functional. The settings on record: time 7 day.
In assay [5] the test system is Staphylococcus aureus. As to the kind of experiment: Antibacterial activity against methicillin-resistant Staphylococcus aureus BNCC 337371 assessed as bacterial growth inhibition incubated for 18 to 24 hrs by microtiter dilution method. The format is functional. The settings on record: time 18-24 hrs.
In assay [6] the test system is Staphylococcus aureus. Description: Antibacterial activity against methicillin-resistant Staphylococcus aureus BNCC 337371 infected in Kunming mouse lung assessed as reduction on neutrophil infiltration at 40 mg/kg,ip measured after 7 days by hematoxylin and eosin staining based light microscopic analysis. The format is functional, organism-based. The settings on record: time 7.0 day.

Assay [7] concerns Staphylococcus aureus. Description: Antibacterial activity against methicillin-resistant Staphylococcus aureus BNCC 337371 infected in Kunming mouse lung assessed as reduction on lymphocyte infiltration at 15 mg/kg,ip measured after 7 days by hematoxylin and eosin staining based light microscopic analysis. The format is functional, organism-based. The settings on record: time 7.0 day.

The subject of assay [8] is Staphylococcus aureus. Description: Antibacterial activity against Staphylococcus aureus ATCC 25923 assessed as reduction on bacterial count at 6X MIC incubated for 24 hrs by time killing assay. The format is functional.
Assay [9] concerns Staphylococcus aureus. Description: Antibacterial activity against methicillin-resistant Staphylococcus aureus BNCC 337371 infected in Kunming mouse assessed as reduction on bacterial growth by measuring survival rate at ip dosed measured after 7 days by Bliss method. The format is functional. The settings on record: BNCC 337371, 168 h, time 7 day.
Assay [10] has as its system Escherichia coli. As to the kind of experiment: Antibacterial activity against Escherichia coli CICC 10389 assessed as bacterial growth inhibition incubated for 18 to 24 hrs by microtiter dilution method. The format is functional. The settings on record: time 18-24 hrs.
In assay [11] the test system is Staphylococcus aureus. Description: Antibacterial activity against methicillin-resistant Staphylococcus aureus BNCC 337371 infected in Kunming mouse liver assessed as reduction on bacterial growth at 40 mg/kg,ip dosed measured after 7 days by 10-fold dilution method. The settings on record: time 7.0 day. The format is functional, organism-based.
Assay [12] relates to Staphylococcus aureus. As to the kind of experiment: Antibacterial activity against methicillin-resistant Staphylococcus aureus BNCC 337371 infected in Kunming mouse lung assessed as reduction on bacterial growth at 15 mg/kg,ip dosed measured after 7 days by 10-fold dilution method. The format is functional. The settings on record: time 7 day.
Assay [13] has as its system Staphylococcus aureus. As to the kind of experiment: Antibacterial activity against methicillin-resistant Staphylococcus aureus BNCC 337371 infected in Kunming mouse lung assessed as reduction on bacterial growth at 40 mg/kg,ip dosed measured after 7 days by 10-fold dilution method. The format is functional. The settings on record: time 7 day.
Assay [14] concerns Staphylococcus aureus. Description: Antibacterial activity against methicillin-resistant Staphylococcus aureus BNCC 337371 infected in Kunming mouse lung assessed as reduction on alveolar diaphragm thickening at 40 mg/kg,ip measured after 7 days by hematoxylin and eosin staining based light microscopic analysis. The format is functional, organism-based. The settings on record: time 7.0 day.

In assay [15] the test system is Bacillus subtilis. Description: Antibacterial activity against Bacillus subtilis assessed as bacterial growth inhibition incubated for 18 to 24 hrs by microtiter dilution method. The format is functional. The settings on record: time 18-24 hrs.
In assay [16] the test system is Staphylococcus epidermidis. As to the kind of experiment: Antibacterial activity against methicillin-resistant Staphylococcus epidermidis ATCC 51625 assessed as bacterial growth inhibition incubated for 18 to 24 hrs by microtiter dilution method. The format is functional. The settings on record: time 18-24 hrs.
Assay [17] relates to Enterococcus faecalis. As to the kind of experiment: Antibacterial activity against Enterococcus faecalis assessed as bacterial growth inhibition incubated for 18 to 24 hrs by microtiter dilution method. The format is functional. The settings on record: time 18-24 hrs.
The subject of assay [18] is Staphylococcus aureus. Description: Antibacterial activity against methicillin-resistant Staphylococcus aureus BNCC 337371 assessed as reduction on bacterial count at 6X MIC incubated for 24 hrs by time killing assay. The format is functional.
For assay [19], the system named is Staphylococcus aureus. Description: Antibacterial activity against methicillin-resistant Staphylococcus aureus BNCC 337371 infected in Kunming mouse lung assessed as reduction on neutrophil infiltration at 15 mg/kg,ip measured after 7 days by hematoxylin and eosin staining based light microscopic analysis. The format is functional, organism-based. The settings on record: time 7.0 day.

The subject of assay [20] is Staphylococcus aureus. As to the kind of experiment: Antibacterial activity against methicillin-resistant Staphylococcus aureus BNCC 337371 infected in Kunming mouse lung assessed as reduction on pulmonary fibrosis at 15 mg/kg,ip measured after 7 days by hematoxylin and eosin staining based light microscopic analysis. The format is functional, organism-based. The settings on record: time 7.0 day.

As a reminder, the MIC is the lowest concentration found to suppress growth. One may read the ED50 as the dose at which the effect has come halfway, by size or by number of responders.

In the case of `C=C[C@]1(C)C[C@@H](OC(=O)CSc2nc(C)c(C(=O)OCC)c(C)n2)[C@]2(C)[C@H](C)CC[C@]3(CCC(=O)[C@H]32)[C@@H](C)[C@@H]1O`, the minimum inhibitory concentration (MIC) is no more than 0.0156 µg/mL in assay [1]; no more than 0.0156 µg/mL in assay [5]; greater than 16 µg/mL in [10]; 4 µg/mL (≈ 6.98 µM) in [15]; no more than 0.0156 µg/mL in [16]; greater than 16 µg/mL in assay [17]. Also, the outcome in [2], in assay [3], in [6], in [7], in [11] and in assay [14] was Active. Further, in assay [19], the result was Active. For the same compound, the Activity turned out to be 3.24 log10CFU/ml in assay [4]; 3.62 log10CFU/ml in [8]; 2.97 log10CFU/ml in [12]; 4.95 log10CFU/ml in assay [13]; 2.44 log10CFU/ml in assay [18]. For the same compound, the median effective dose (ED50) in assay [9] was found to be 16.1 mg/kg.

For the compound `C=C[C@]1(C)C[C@@H](OC(=O)CSc2nc(C)c(C(=O)OC)c(C)n2)[C@]2(C)[C@H](C)CC[C@]3(CCC(=O)[C@H]32)[C@@H](C)[C@@H]1O`, the minimal inhibitory concentration (MIC) in assay [1] is no more than 0.0156 µg/mL; in [5], no more than 0.0156 µg/mL; in [10] it was greater than 16 µg/mL; in assay [15], 2 µg/mL (≈ 3.58 µM); in [16], 0.0313 µg/mL (≈ 0.056 µM); in assay [17], greater than 16 µg/mL. Besides, the result in [8] and in [18] was Active.

Regarding `C=C[C@]1(C)C[C@@H](OC(=O)CSCCN(CC)CC)[C@]2(C)[C@H](C)CC[C@]3(CCC(=O)[C@H]32)[C@@H](C)[C@@H]1O.O=C(O)/C=C/C(=O)O` [TIAMULIN FUMARATE], the MIC in assay [1] was 0.5 µg/mL; in [5], 0.5 µg/mL; in assay [10] it was greater than 16 µg/mL; in assay [15], greater than 16 µg/mL; in assay [16], 0.5 µg/mL; in assay [17], greater than 16 µg/mL. Moreover, the result in assay [20], in assay [2], in assay [3], in assay [6], in [7] and in assay [14] was Active. For the same compound, the result in assay [19] was Active. In addition, in [9], the ED50 is 22.9 mg/kg. Also, the Activity in assay [12] is 1.68 log10CFU/ml; in assay [13], 2.56 log10CFU/ml.

On to `C=C[C@]1(C)C[C@@H](OC(=O)CSc2nc(C)c(C(C)=O)c(C)n2)[C@]2(C)[C@H](C)CC[C@]3(CCC(=O)[C@H]32)[C@@H](C)[C@@H]1O`, for which the MIC is no more than 0.0156 µg/mL in assay [1]; no more than 0.0156 µg/mL in assay [5]; greater than 16 µg/mL in assay [10]; 1 µg/mL (≈ 1.84 µM) in assay [15]; 0.0313 µg/mL (≈ 0.0577 µM) in assay [16]; greater than 16 µg/mL in assay [17]. In addition, the outcome in assay [8] and in assay [18] was Active.

Consider `C=C[C@]1(C)C[C@@H](OC(=O)CS[C@@H]2C[C@H]3CC[C@@H](C2)N3C)[C@]2(C)[C@H](C)CC[C@]3(CCC(=O)[C@H]32)[C@@H](C)[C@@H]1O` [RETAPAMULIN], for which the minimal inhibitory concentration (MIC) is 0.25 µg/mL (≈ 0.483 µM) in [1]; 0.125 µg/mL (≈ 0.241 µM) in [5]; greater than 16 µg/mL in assay [10]; 8 µg/mL (≈ 15.5 µM) in assay [15]; 0.125 µg/mL (≈ 0.241 µM) in [16]; greater than 16 µg/mL in [17]. Moreover, the values for the Activity in assay [8] and in assay [18] were 2.25 log10CFU/ml and 3.3 log10CFU/ml, respectively.

For `C=C[C@]1(C)C[C@@H](OC(=O)CSC2=NC(CC)=C(C(=O)OC)C(C)N2)[C@]2(C)[C@H](C)CC[C@]3(CCC(=O)[C@H]32)[C@@H](C)[C@@H]1O` (stereo not given in full), the minimum inhibitory concentration (MIC) is 0.5 µg/mL (≈ 0.87 µM) in assay [1]; 0.25 µg/mL (≈ 0.435 µM) in assay [5]; greater than 16 µg/mL in assay [10]; 8 µg/mL (≈ 13.9 µM) in [15]; 0.125 µg/mL (≈ 0.217 µM) in assay [16]; greater than 16 µg/mL in [17].
